Several values for one entry are separate records, joined by “and”; a condition that tells them apart may be missing. Identical values can stand only once.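 Exposure lasted 48 hours, with cells grown in 96-well plates and compounds tested at five concentrations. GI50: concentration for 50% inhibition of growth. TGI is the concentration that stops growth completely.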
Legend:
Experiment in all cases: inhibition of tumour cell growth, NCI panel, 48 h
[1] = system: IGROV1 ovarian
[2] = system: HS 578T breast
[3] = system: DU-145 prostate
[4] = system: HCT-15 colon
[5] = system: SN12C renal
[6] = system: HOP-62 NSCLC
[7] = system: HCC-2998 colon
[8] = system: NCI/ADR-RES ovarian
[9] = system: KM12 colon
[10] = system: K-562 leukemia

Row | Structure (SMILES) | TGI [1] | TGI [2] | TGI [3] | TGI [4] | TGI [5] | TGI [6] | GI50 [7] | TGI [7] | TGI [8] | TGI [9] | TGI [10] | GI50 [1] | GI50 [2] | GI50 [3] | GI50 [4] | GI50 [5] | GI50 [6] | GI50 [8] | GI50 [9] | GI50 [10]
1 | N#Cc1c(-c2ccccc2)c(C#N)c(=O)n(C2OC(CO)C(O)C(O)C2O)c1S (stereo unspecified) | > 100 µM | > 100 µM | > 100 µM | > 100 µM | > 100 µM | > 100 µM | > 100 µM and 40.4 µM | > 100 µM | > 100 µM | > 100 µM | > 100 µM |  |  |  |  |  |  |  |  | 
2 | O=C1NC(S(=O)(=O)O)=NNC12c1ccccc1-c1ccccc12 | > 10 µM | > 10 µM | > 10 µM | > 10 µM | > 10 µM | > 10 µM |  | > 10 µM | > 10 µM | > 10 µM | > 10 µM |  |  |  |  |  |  |  |  | 
3 | C[N+](C)([O-])Cc1cc(-c2ccccc2)ccc1O | > 100 µM | > 100 µM | > 100 µM | > 100 µM | > 100 µM | > 100 µM |  | > 100 µM | > 100 µM | > 100 µM | > 100 µM |  |  |  |  |  |  |  |  | 
4 | O=C(N/N=C(/COc1cccc(Cl)c1)N=Cc1cccnc1)c1ccncc1 | > 100 µM | > 100 µM | > 100 µM | > 100 µM | > 100 µM | > 100 µM |  | > 100 µM | > 100 µM | > 100 µM | > 100 µM |  |  |  |  |  |  |  |  | 
5 | Cc1cc2c(cc1C)C(=O)/C(=N/Nc1ccc(F)cc1)CCO2 | > 100 µM | > 100 µM | > 100 µM | > 100 µM | > 100 µM | > 100 µM |  | > 100 µM | > 100 µM | > 100 µM | > 100 µM |  |  |  |  |  |  |  |  | 
6 | CCCCCCCCCc1c(O)c(O)c(CCCCCCCCC)c(CCCCCCCCC)c1CCCCCCCCC | > 100 µM | > 100 µM | > 100 µM | > 100 µM | > 100 µM | > 100 µM |  | > 100 µM | > 100 µM | > 100 µM | > 100 µM |  |  |  |  |  |  |  |  | 
7 | NC(N)=NS(=O)(=O)c1ccc(NC(=O)c2ccc3[nH]c4ccccc4c(=O)c3c2)cc1 | > 100 µM | > 100 µM | > 100 µM | > 100 µM | > 100 µM | > 100 µM |  | > 100 µM | > 100 µM | > 100 µM | > 100 µM |  |  |  |  |  |  |  |  | 
8 | COc1ccc2c(CCNS(=O)(=O)c3ccccc3)c(C(C)=O)[nH]c2c1 | > 100 µM | > 100 µM | > 100 µM | > 100 µM | > 100 µM | > 100 µM |  | > 100 µM | > 100 µM | > 100 µM | > 100 µM |  |  |  |  |  |  |  |  | 
9 | O=[N+]([O-])c1sc2ccc(Cl)cc2c1Nc1ccc(Cl)cc1 | > 100 µM | > 100 µM | > 100 µM | > 100 µM | > 100 µM | > 100 µM |  | > 100 µM | > 100 µM | > 100 µM | > 100 µM |  |  |  |  |  |  |  |  | 
10 | c1ccc(C2=Nc3cccc4cccc(c34)N2)cc1 | > 94.5 µM | > 100 µM | > 100 µM | > 96.1 µM | > 100 µM | > 100 µM |  | > 100 µM | > 72.1 µM | > 85.1 µM | > 72.9 µM |  |  |  |  |  |  |  |  | 
11 | NC(=S)NS(=O)(=O)c1ccc(F)cc1F | > 100 µM | > 100 µM | > 100 µM | > 100 µM | > 100 µM | > 100 µM |  | > 100 µM | > 100 µM | > 100 µM | > 100 µM |  |  |  |  |  |  |  |  | 
12 | CC1=CC(C)(C)Nc2ccc(CSc3ccccc3)cc21 | > 100 µM | > 100 µM | 71.5 µM | > 100 µM | 62.1 µM | 80 µM |  | 45.1 µM | > 100 µM | 63.5 µM | > 100 µM |  |  |  |  |  |  |  |  | 
13 | O=C(CCOS(=O)(=O)CF)N1CCN(C(=O)CCOS(=O)(=O)CF)CC1 | > 100 µM | > 100 µM | > 100 µM | > 100 µM | > 100 µM | > 100 µM |  | > 100 µM | > 100 µM | > 100 µM | > 100 µM |  |  |  |  |  |  |  |  | 
14 | COc1ccc(CNC(=O)[C@H](Cc2ccc(O)cn2)NC(C)=O)cc1 | > 100 µM | > 100 µM | > 100 µM | > 100 µM | > 100 µM | > 100 µM |  | > 100 µM | > 100 µM | > 100 µM | > 100 µM |  |  |  |  |  |  |  |  | 
15 | O=C(O)Cn1c2c(c3c(O)cccc31)C(=O)c1ccccc1-2 | > 100 µM | > 100 µM | > 100 µM | > 100 µM | > 100 µM | > 100 µM | > 100 µM | > 100 µM | > 100 µM | > 100 µM | > 100 µM | > 100 µM | > 100 µM | 51.9 nM | > 100 µM | > 100 µM | > 100 µM | > 100 µM | > 100 µM | > 100 µM
16 | Cn1c2c3c(F)c(F)ccc3nc-2cc2ccccc21 | 15.9 µM | > 100 µM | 10.2 µM | 10.7 µM | 6.23 µM | 6.92 µM |  | 3.63 µM | 7.68 µM | 4.76 µM | > 100 µM |  |  |  |  |  |  |  |  | 
17 | CC(=O)N=C1N(/C=C2\C(=O)Oc3ccccc3C2=O)C(=O)/C(=C/c2ccccc2Cl)N1C | > 100 µM | 34.9 µM | > 100 µM | > 100 µM | > 100 µM | > 100 µM |  | > 100 µM | > 100 µM | > 100 µM | > 100 µM |  |  |  |  |  |  |  |  | 
18 | COc1cccc2cc(C(=O)Nc3ccccn3)c(=N)oc12 | > 100 µM | > 100 µM | > 100 µM | > 100 µM | > 100 µM | > 100 µM |  | > 100 µM | > 100 µM | > 100 µM | > 100 µM |  |  |  |  |  |  |  |  | 
